The numbers were not newly measured in patent US20090208944A1 (priority 2005, published 2009), which cites them from elsewhere.

SMILES strings stand for the structures.

Chain of CYP2D6 enzyme system (P10635 whole entry): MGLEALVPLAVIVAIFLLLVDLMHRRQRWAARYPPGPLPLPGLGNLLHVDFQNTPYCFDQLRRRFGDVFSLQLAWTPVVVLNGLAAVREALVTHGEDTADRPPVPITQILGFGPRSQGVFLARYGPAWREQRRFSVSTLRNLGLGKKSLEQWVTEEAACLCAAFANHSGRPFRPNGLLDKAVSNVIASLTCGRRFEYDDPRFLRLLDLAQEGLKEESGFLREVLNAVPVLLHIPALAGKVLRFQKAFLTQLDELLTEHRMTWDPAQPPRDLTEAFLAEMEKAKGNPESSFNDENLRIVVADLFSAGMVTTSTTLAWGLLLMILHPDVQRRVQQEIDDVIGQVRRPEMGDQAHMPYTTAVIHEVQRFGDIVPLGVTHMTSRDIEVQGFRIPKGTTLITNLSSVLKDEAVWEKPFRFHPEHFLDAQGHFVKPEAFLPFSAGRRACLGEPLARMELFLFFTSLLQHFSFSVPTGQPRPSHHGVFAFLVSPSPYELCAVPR

The data set concerns the target CYP2D6 enzyme system (Homo sapiens, UniProt P10635). As to conditions: classification from literature.
With `CN/C(=N/CCSCc1nc[nH]c1C)NC#N` [cimetidine], the “potency as inhibitor of the CYP2D6 enzyme system” value (“potency as inhibitor” for short) is recorded as “Moderate”. Regarding `CN(C)CCC=C1c2ccccc2COc2ccccc21` [doxepin], the “potency as inhibitor” value was “Moderate”.

Turning to `O=C(CCCN1CCC(O)(c2ccc(Cl)cc2)CC1)c1ccc(F)cc1` [haloperidol], the “potency as inhibitor” value is “Moderate”. Take `Fc1ccc([C@@H]2CCNC[C@H]2COc2ccc3c(c2)OCO3)cc1` [paroxetine]: the “potency as inhibitor” value is “Potent”. Consider `CN[C@H]1CC[C@@H](c2ccc(Cl)c(Cl)c2)c2ccccc21` [sertraline], for which the “potency as inhibitor” value is “Moderate”.
